# Laboratory results from article PMC4102551, “Screening and Characterisation of Antimicrobial Properties of Semisynthetic Betulin Derivatives” (PLoS ONE, 2014).
# Where “and” joins values, the source holds several entries; their conditions need not be identical. Equal entries are not always repeated. Where two headings read alike, the source gives them in different places.
# Key:
# [1] = tested on: E. aerogenes ATCC 13048; test: Broth microdilution assay, E. aerogenes; type: cell-based, Enterobacter aerogenes; details: Klebsiella aerogenes, ATCC13048, 24 h, 50 µM, 24 h, inhibition of growth, mean ± SD; read-out: Inhibitory effect (%) E. aerogenes ATCC 13048
# In short: (§1)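 Broth microdilution per CLSI/EUCAST in Mueller Hinton II broth, 5×10^5 cfu/mL, 24 h at 37°C with agitation; growth by absorbance at 620 nm versus controls. Compounds first screened at 50 µM.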
# [2] = tested on: E. coli ATCC 25922; test: Broth microdilution assay, E. coli; type: cell-based, Escherichia coli; details: Escherichia coli, ATCC25922, 24 h; read-out: Inhibitory effect (%) E. coli ATCC 25922
# In short: as §1
# [3] = tested on: E. faecalis ATCC 29212; test: Broth microdilution assay, E. faecalis; type: cell-based, Enterococcus faecalis; details: 50 µM, 24 h, inhibition of growth, mean ± SD; for inhibition at 50 µM: Enterococcus faecalis, ATCC29212, 24 h, read-out: Inhibitory effect (%) E. faecalis ATCC 29212
# In short: as §1
# [4] = tested on: P. aeruginosa ATCC 27853; test: Broth microdilution assay, P. aeruginosa; type: cell-based, Pseudomonas aeruginosa; details: Pseudomonas aeruginosa, ATCC27853, 24 h; read-out: Inhibitory effect (%) P. aeruginosa ATCC 27853
# In short: as §1
# [5] = tested on: S. aureus ATCC 25923; test: Broth microdilution assay, S. aureus; type: cell-based, Staphylococcus aureus; details: 50 µM, 24 h, inhibition of growth, mean ± SD; for inhibition at 50 µM: Staphylococcus aureus, ATCC25923, 24 h, read-out: Inhibitory effect (%) S. aureus ATCC 25923
# In short: as §1
# [6] = tested on: C. albicans ATCC 90028; test: Broth microdilution assay, C. albicans; type: cell-based, Candida albicans; details: for inhibition at 50 µM: Candida albicans, ATCC90028, 48 h, read-out: Inhibitory effect (%) C. albicans ATCC 90028
# In short: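 Candida albicans ATCC 90028 was grown on Sabouraud Dextrose Agar at 27°C for 16–18 h, then suspended in sterile 0.9% saline. Broth microdilution in clear 96-well plates mixed equal volumes of yeast suspension and diluted sample. Plates were incubated with agitation at 35°C for 48 h. Absorbance at 620 nm was read at 0, 24 and 48 h, and growth inhibition was expressed as a percentage relative to controls.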
# [7] = in vitro; type: cell-based, human; details: human
# In short: (§2)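 Cytotoxicity read-out: intracellular ATP (CellTiter-Glo luminescence) in Huh-7 hepatoma cells seeded at 20000 cells/well, cultured overnight, then exposed to compounds for 24 h at 37°C in 5% FBS medium. Polymyxin B sulphate (15000 IU/mL) served as positive control.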
# [8] = tested on: Huh-7 cells; test: in vitro; type: cell-based, human; details: 50 µM
# In short: as §2
# [9] = tested on: S. aureus infected HL cell line; test: Host-pathogen co-culture assay; type: cell-based, Staphylococcus aureus; details: at the highest concentration (range 0.024–100 µM), 3 days
# Description: Briefly, HL cells used as the host cell were seeded at 40000 cells/well on black-walled microplates (Perkin Elmer) and incubated at 37°C, 5% CO2 and 95% humidity for 24 h. Cell monolayers were infected with 2000 cfus of S. aureus in RPMI 1640 media without antibiotics. Compounds were added to the media at different concentrations selected on the basis of the MIC determinations. […] Co-cultures were incubated for 3 days at 37°C, 5% CO2 and 95% humidity. Following the incubation period the cells were washed with 200 µL 6.7 mM PBS, pH 7.4, and finally, 200 µL 6.7 mM PBS, pH 7.4 containing 10 µg/mL fluorescein diacetate (FDA) was added to the cells to evaluate the survival of the host cells. After 45 min incubation at room temperature (RT), fluorescence was measured at 485 nm excitation and 538 nm emission with a Victor plate reader.
# For studying simultaneously the efficacy and tolerability of antibacterial compounds, an assay based on co-culturing of a secondary human cell line (HL, derived originally from human lung) and a pathogen was used. […] In the assay, host cells are incubated in the presence of the test sample and are infected with bacteria. After 3 days of incubation, the host cell survival is determined using fluorescein diacetate to measure the viability of the host cells. […]
# [10] = Storage stability of samples; type: physicochemical; details: ambient temperature, air atmosphere, several years
# Description: Betulin 1 is a stable compound, as we have not noticed any degradation of samples even if stored at ambient temperature under air atmosphere for several years. […] Thus, instability issues cannot be seen as a major concern regarding the betulin derivatives of this study.
# [11] = tested on: Streptococcus pyogenes; parameters: method as in PMID 29255382; details: ref 11; cited from earlier work
# [12] = tested on: S. aureus; parameters: method as in earlier work; details: ref 32; cited from earlier work
# [13] = tested on: E. coli; parameters: method as in earlier work; details: ref 32; cited from earlier work
# [14] = tested on: P. aeruginosa; parameters: method as in earlier work; details: ref 32; cited from earlier work
# [15] = tested on: C. albicans; details: cited from earlier work
Compound,inhibition at 50 µM [1] [%],inhibition at 50 µM [2] [%],Inhibitory effect (%) E. faecalis ATCC 29212 [3],inhibition at 50 µM [3] [%],inhibition at 50 µM [4] [%],inhibition at 50 µM [5] [%],inhibition at 50 µM [6] [%],other results
"C=C(C)[C@@H]1CC[C@]2(C(=O)O)CC[C@]3(C)C(CCC4[C@@]5(C)CCC(=O)C(C)(C)C5CC[C@]43C)C12 (stereo partly shown) [Compound 23, betulonic acid]",21.8 ± 4.1,9.1 ± 8.9,74% and 74.3±0.8%,> 70,9.5 ± 2.5,51,25.2 ± 11,"Inhibitory effect (%) S. aureus ATCC 25923 [5]: 51.1±7.3%; cytotoxicity at 24 h, 50 µM ([7]; Cytotoxicity (%) Huh-7 cells): 18%; Cytotoxicity (%) Huh-7 cells ([8]; human, 24 h): 17.8±12.6%; Activity in host-pathogen co-culture assay [9]: 27%"
"C=C(C)[C@@H]1CC[C@]2(CO)CC[C@]3(C)[C@H](CC[C@@H]4[C@@]5(C)CC[C@H](O)C(C)(C)[C@@H]5CC[C@]43C)[C@@H]12 [Compound 1, lup-20(29)-ene-3β, 28-diol]",5.7 ± 2.1,1.3 ± 5.1,19.7±6.2%,20,-1.2 ± 2.5,-6.7 ± 6.4,-27.5 ± 15,"Inhibitory effect (%) C. albicans ATCC 90028 ([6]; 50 µM, 48 h at 35°C, inhibition of growth, mean ± SD): inactive; cytotoxicity at 24 h, 50 µM ([7]; 50 µM, 24 h exposure, ATP content, 5% FBS, read-out: Cytotoxicity (%) Huh-7 cells): 14%; Cytotoxicity (%) Huh-7 cells ([8]; 24 h exposure, ATP content, 5% FBS): 13.7±2.7%; Stability on storage [10]: stable; MIC against S. pyogenes [11]: 85 µg/mL; MIC against S. aureus [12]: 250 µg/mL; MIC against E. coli [13]: 250 µg/mL; MIC against P. aeruginosa [14]: 250 µg/mL; MIC against C. albicans ([15]; ref 12): 250 µg/mL; MIC against C. albicans ([15]; ref 41): 180 µg/mL"
